Laboratory results reported in patent EP0384722A1, “Chemical compositions” (PITMAN-MOORE LIMITED, priority 1989, dated 1990).
Where two headings read alike, the source gives them in different places.

Columns and labels:
[1] = Comparison of bioavailability of Compound A and Trimethoprim (TMP) administered by i/v injection, dogs; format: in vivo; conditions: beagle, intravenous, serum, i/v injection at 2 mg/kg; for concentration at 0 h: 0 hours post inj.; for concentration at 0 h / concentration at 1 h / concentration at 3 h / concentration at 5 h / concentration at 7 h / concentration at 24 h / concentration at 30 h / concentration at 48 h: read-out: Serum conc. of TMP; for concentration at 1 h: 1 hours post inj.; for concentration at 3 h: 3 hours post inj.; for concentration at 5 h: 5 hours post inj.; for concentration at 7 h: 7 hours post inj.; for concentration at 24 h: 24 hours post inj.; for concentration at 30 h: 30 hours post inj.; for concentration at 48 h: 48 hours post inj.
Experimental: One male beagle dog, 13.5 kg and one female beagle, 11.1kg, both aged about 18 months, received i/v injections (cephalic vein) of the test compounds at 2mg base/kg, using 15mg base /ml aqueous solutions.

[2] = Comparison of bioavailability of Compound A and Trimethoprim (TMP) administered by i/v injection, cats; format: in vivo; conditions: serum, i/v injection at 2 mg/kg; for concentration at 0 h / concentration at 1 h / concentration at 3 h / concentration at 5 h / concentration at 7 h / concentration at 24 h: 2 mg/kg, read-out: Serum conc. of TMP; for concentration at 0 h: 0 hours post inj.; for concentration at 1 h: 1 hours post inj.; for concentration at 3 h: 3 hours post inj.; for concentration at 5 h: 5 hours post inj.; for concentration at 7 h: 7 hours post inj.; for concentration at 24 h: 24 hours post inj.
Experimental: Two young adult female cats, bodyweight around 3 kg, were given i/v injections at 2 mg/kg of TMP or Compound A, using 3 mg/base ml aqueous solutions.

[3] = female, cat, intravenous, cat 1
[4] = female, cat, intravenous, cat 2

COc1cc(Cc2cnc(N)nc2N)cc(OC)c1OC [TMP, trimethoprim]
half-life ([1]; both sexes, dog, dogs, read-out: Est.t1/2 (converted)): 156 min
concentration at 0 h ([1]; female, dog F): 0 ng/mL
concentration at 1 h ([1]; female, dog F): 1200 ng/mL
concentration at 3 h ([1]; female, dog F): 740 ng/mL
concentration at 5 h ([1]; female, dog F): 310 ng/mL
concentration at 7 h ([1]; female, dog F): 210 ng/mL
concentration at 24 h ([1]; female, dog F): 0 ng/mL
concentration at 30 h ([1]; female, dog F): 0 ng/mL
concentration at 48 h ([1]; female, dog F): 0 ng/mL
concentration at 0 h ([1]; male, dog M): 0 ng/mL
concentration at 1 h ([1]; male, dog M): 1100 ng/mL
concentration at 3 h ([1]; male, dog M): 800 ng/mL
concentration at 5 h ([1]; male, dog M): 400 ng/mL
concentration at 7 h ([1]; male, dog M): 260 ng/mL
concentration at 24 h ([1]; male, dog M): 0 ng/mL
concentration at 30 h ([1]; male, dog M): 0 ng/mL
concentration at 48 h ([1]; male, dog M): 0 ng/mL
Est.t1/2 ([2]; cats): 45 min
half-life ([2]; female, cat, intravenous, cats, read-out: Est.t1/2 (converted)): 45 min
concentration at 0 h [2, 3]: 0 ng/mL
concentration at 1 h [2, 3]: 460 ng/mL
concentration at 3 h [2, 3]: 60 ng/mL
concentration at 5 h [2, 3]: 0 ng/mL
concentration at 7 h [2, 3]: 0 ng/mL
concentration at 24 h [2, 3]: 0 ng/mL
concentration at 0 h [2, 4]: 0 ng/mL
concentration at 1 h [2, 4]: 440 ng/mL
concentration at 3 h [2, 4]: 84 ng/mL
concentration at 5 h [2, 4]: 0 ng/mL
concentration at 7 h [2, 4]: 0 ng/mL
concentration at 24 h [2, 4]: 0 ng/mL
